Laboratory results reported in publication PMC7407272, “Induction of Lysosome Membrane Permeabilization as a Therapeutic Strategy to Target Pancreatic Cancer Stem Cells” (Cancers, 2020).

How the values were obtained:
PDAC1 3D spheres = assay: Viability curves on PDAC1 3D spheres; type: cell-based; conditions: Homo sapiens, 30 h
Description: The PDAC patient-derived xenograft (PDX) Panc354 (referred to hereafter as PDAC3) was obtained from Dr. Manuel Hidalgo under a Material Transfer Agreement with the Spanish National Cancer Centre (CNIO), Madrid, Spain (Reference no. I409181220BSMH). PDAC1, PDAC2 and PDAC4 PDXs were established from primary patient resected tumors. Samples were provided by the BioBank Hospital Ramón y Cajal-IRYCIS (PT13/0010/0002), integrated in the Spanish National Biobanks Network and they were processed following standard operating procedures with the appropriate approval of the Ethical and Scientific Committees (Control no. No. Control: DE-BIOB-73 AC65, RG.BIOB-96 REV, and CI-BIOB-08-10-01 rev), with informed consent and according to Declaration of Helsinki principles. […]
Pancreatic CSC spheres were generated as previously described in ultra-low attachment plates (Corning) using CSC media: serum-free DMEM/F12 medium (1:1; #21331-020; Gibco, Waltham, MA, USA), supplemented with Pen/Strep (1:100; #1500-063; Gibco, Waltham, MA, USA), Fungizone (1:250; #15290-018; Gibco), L-Glutamine (1:100; #25030-024; Gibco, Waltham, MA, USA), B-27 (1:50; #17504-044; Gibco, Waltham, MA, USA) and basic fibroblast growth factor (FGF-b) (1:5000; Gibco, Waltham, MA, USA). […] To quantify spheres of > 40 μm, 1 mL of sample volume was analyzed with a CASY® Cell Counter (Roche Applied Sciences, Mannheim, Germany). […]

CSNK1D = biological target: T1, CSNK1D (Homo sapiens, UniProt P48730); assay: KINOMEscan; type: binding; conditions: read-out: % Ctrl
T1 construct: purchased DiscoveRx KINOMEscan

HIPK4 = biological target: T2, HIPK4 (Homo sapiens, UniProt Q8NE63); assay: KINOMEscan; type: binding; conditions: read-out: % Ctrl
T2 construct: purchased DiscoveRx KINOMEscan

MERTK = biological target: T3, MERTK (Homo sapiens, UniProt Q12866); assay: KINOMEscan; type: binding; conditions: read-out: % Ctrl
T3 construct: purchased DiscoveRx KINOMEscan

TXK = biological target: T4, TXK (Homo sapiens, UniProt P42681); assay: KINOMEscan; type: binding; conditions: read-out: % Ctrl
T4 construct: purchased DiscoveRx KINOMEscan

MKK7 = biological target: T5, MKK7 (Homo sapiens, UniProt O14733); assay: KINOMEscan; type: binding; conditions: read-out: % Ctrl
T5 construct: purchased DiscoveRx KINOMEscan

WNK2 = biological target: T6, WNK2 (Homo sapiens, UniProt Q9Y3S1); assay: KINOMEscan; type: binding; conditions: read-out: % Ctrl
T6 construct: purchased DiscoveRx KINOMEscan

PHKG2 = biological target: T7, PHKG2 (Homo sapiens, UniProt P15735); assay: KINOMEscan; type: binding; conditions: read-out: % Ctrl
T7 construct: purchased DiscoveRx KINOMEscan

LRRK2(G2019S) = biological target: T8, LRRK2(G2019S) (Homo sapiens, UniProt Q5S007, G2019S); assay: KINOMEscan; type: binding; conditions: read-out: % Ctrl
T8 construct: purchased DiscoveRx KINOMEscan

PKN2 = biological target: T9, PKN2 (Homo sapiens, UniProt Q16513); assay: KINOMEscan; type: binding; conditions: read-out: % Ctrl
T9 construct: purchased DiscoveRx KINOMEscan

STK16 = biological target: T10, STK16 (Homo sapiens, UniProt O75716); assay: KINOMEscan; type: binding; conditions: read-out: % Ctrl
T10 construct: purchased DiscoveRx KINOMEscan

ABL1(E255K)-P = biological target: T11, ABL1(E255K)-P (Homo sapiens, UniProt P00519, E255K); assay: KINOMEscan; type: binding; conditions: read-out: % Ctrl
T11 construct: purchased DiscoveRx KINOMEscan

FLT3(D835V) = biological target: T12, FLT3(D835V) (Homo sapiens, UniProt P36888, D835V); assay: KINOMEscan; type: binding; conditions: read-out: % Ctrl
T12 construct: purchased DiscoveRx KINOMEscan

ERK8 = biological target: T13, ERK8 (Homo sapiens, UniProt Q8TD08); assay: KINOMEscan; type: binding; conditions: read-out: % Ctrl
T13 construct: purchased DiscoveRx KINOMEscan

JNK1 = biological target: T14, JNK1 (Homo sapiens, UniProt P45983); assay: KINOMEscan; type: binding; conditions: read-out: % Ctrl
T14 construct: purchased DiscoveRx KINOMEscan

TNIK = biological target: T15, TNIK (Homo sapiens, UniProt Q9UKE5); assay: KINOMEscan; type: binding; conditions: read-out: % Ctrl
T15 construct: purchased DiscoveRx KINOMEscan

PAK3 = biological target: T16, PAK3 (Homo sapiens, UniProt O75914); assay: KINOMEscan; type: binding; conditions: read-out: % Ctrl
T16 construct: purchased DiscoveRx KINOMEscan

CAMK2B = biological target: T17, CAMK2B (Homo sapiens, UniProt Q13554); assay: KINOMEscan; type: binding; conditions: read-out: % Ctrl
T17 construct: purchased DiscoveRx KINOMEscan

ROCK1 = biological target: T18, ROCK1 (Homo sapiens, UniProt Q13464); assay: KINOMEscan; type: binding; conditions: read-out: % Ctrl
T18 construct: purchased DiscoveRx KINOMEscan

ACVRL1 = biological target: T19, ACVRL1 (Homo sapiens, UniProt P37023); assay: KINOMEscan; type: binding; conditions: read-out: % Ctrl
T19 construct: purchased DiscoveRx KINOMEscan

T10 sequence (O75716 whole entry): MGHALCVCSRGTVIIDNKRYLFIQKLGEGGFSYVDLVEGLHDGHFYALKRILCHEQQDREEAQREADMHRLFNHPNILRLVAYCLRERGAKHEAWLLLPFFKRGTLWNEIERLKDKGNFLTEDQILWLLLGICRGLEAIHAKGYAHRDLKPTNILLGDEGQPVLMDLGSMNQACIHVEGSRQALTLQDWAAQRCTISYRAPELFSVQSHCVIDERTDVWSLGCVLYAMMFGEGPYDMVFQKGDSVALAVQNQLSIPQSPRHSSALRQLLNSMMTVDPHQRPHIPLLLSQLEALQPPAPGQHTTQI
T4 sequence (P42681 whole entry): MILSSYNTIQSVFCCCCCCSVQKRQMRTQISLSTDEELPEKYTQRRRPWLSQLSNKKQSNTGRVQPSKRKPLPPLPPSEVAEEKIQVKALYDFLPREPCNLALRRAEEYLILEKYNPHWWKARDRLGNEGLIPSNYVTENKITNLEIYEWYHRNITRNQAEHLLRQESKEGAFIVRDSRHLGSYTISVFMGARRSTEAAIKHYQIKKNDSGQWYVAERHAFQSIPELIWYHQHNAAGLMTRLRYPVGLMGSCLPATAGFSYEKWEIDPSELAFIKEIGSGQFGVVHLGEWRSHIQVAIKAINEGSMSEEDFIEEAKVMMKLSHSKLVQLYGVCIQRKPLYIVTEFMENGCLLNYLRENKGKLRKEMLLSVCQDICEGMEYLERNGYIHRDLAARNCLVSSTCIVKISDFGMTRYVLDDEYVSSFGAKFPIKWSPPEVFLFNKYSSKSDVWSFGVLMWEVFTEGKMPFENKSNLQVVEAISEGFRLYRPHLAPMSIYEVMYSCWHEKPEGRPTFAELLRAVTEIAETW
T13 sequence (Q8TD08 whole entry): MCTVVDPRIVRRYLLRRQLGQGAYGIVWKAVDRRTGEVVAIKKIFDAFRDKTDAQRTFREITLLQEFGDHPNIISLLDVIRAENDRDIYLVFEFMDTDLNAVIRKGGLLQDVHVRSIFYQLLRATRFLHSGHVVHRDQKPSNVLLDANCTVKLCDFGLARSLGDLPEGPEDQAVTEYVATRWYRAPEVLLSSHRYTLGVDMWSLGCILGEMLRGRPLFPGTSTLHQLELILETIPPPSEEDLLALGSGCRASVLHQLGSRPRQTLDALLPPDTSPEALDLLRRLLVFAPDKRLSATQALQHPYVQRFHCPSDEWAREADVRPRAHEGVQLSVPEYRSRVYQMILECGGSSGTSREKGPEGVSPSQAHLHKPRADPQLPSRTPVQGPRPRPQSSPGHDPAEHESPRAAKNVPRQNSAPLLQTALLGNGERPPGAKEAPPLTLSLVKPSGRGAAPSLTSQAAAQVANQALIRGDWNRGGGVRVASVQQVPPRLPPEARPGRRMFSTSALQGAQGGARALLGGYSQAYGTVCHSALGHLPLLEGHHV
T3 sequence (Q12866 21-999): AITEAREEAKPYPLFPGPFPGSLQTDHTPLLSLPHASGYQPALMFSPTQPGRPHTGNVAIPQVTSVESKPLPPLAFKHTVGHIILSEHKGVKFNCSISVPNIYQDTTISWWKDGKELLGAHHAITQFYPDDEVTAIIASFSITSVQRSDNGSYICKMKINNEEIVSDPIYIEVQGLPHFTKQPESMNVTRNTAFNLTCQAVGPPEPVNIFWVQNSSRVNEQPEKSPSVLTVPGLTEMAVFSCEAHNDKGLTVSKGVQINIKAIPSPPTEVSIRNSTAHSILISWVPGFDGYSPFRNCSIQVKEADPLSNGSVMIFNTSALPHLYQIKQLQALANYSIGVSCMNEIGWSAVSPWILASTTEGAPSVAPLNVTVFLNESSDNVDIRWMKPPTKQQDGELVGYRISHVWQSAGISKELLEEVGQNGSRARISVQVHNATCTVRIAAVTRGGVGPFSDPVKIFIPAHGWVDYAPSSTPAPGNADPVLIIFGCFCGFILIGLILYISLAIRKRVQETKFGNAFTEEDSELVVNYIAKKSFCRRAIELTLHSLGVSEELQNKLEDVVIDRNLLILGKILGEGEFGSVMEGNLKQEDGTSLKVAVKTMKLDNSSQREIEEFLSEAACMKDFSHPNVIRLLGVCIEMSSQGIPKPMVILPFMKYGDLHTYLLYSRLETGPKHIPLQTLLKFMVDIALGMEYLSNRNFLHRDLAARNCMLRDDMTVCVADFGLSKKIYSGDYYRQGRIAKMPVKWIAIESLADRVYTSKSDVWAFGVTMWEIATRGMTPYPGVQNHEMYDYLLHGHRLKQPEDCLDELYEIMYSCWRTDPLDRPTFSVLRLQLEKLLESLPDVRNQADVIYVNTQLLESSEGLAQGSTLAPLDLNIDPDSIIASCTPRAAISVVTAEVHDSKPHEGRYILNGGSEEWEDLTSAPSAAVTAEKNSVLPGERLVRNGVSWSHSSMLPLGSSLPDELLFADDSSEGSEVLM
T2 sequence (Q8NE63 whole entry): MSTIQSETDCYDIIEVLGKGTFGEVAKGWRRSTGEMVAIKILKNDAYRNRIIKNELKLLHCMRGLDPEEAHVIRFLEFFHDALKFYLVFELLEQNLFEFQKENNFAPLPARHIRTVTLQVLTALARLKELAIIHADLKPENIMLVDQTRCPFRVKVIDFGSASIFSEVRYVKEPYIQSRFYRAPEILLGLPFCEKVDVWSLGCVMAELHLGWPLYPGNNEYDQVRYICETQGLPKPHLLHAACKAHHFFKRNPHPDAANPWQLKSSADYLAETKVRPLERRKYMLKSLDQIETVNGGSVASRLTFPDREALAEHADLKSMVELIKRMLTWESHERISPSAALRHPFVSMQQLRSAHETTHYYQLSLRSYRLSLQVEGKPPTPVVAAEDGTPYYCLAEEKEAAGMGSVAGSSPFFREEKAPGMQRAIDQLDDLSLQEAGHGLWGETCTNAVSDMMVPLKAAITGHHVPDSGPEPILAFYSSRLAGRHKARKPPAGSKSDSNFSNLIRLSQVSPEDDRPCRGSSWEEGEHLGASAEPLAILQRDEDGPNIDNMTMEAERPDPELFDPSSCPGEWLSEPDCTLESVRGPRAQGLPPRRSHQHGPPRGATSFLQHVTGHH
T14 sequence (P45983 whole entry): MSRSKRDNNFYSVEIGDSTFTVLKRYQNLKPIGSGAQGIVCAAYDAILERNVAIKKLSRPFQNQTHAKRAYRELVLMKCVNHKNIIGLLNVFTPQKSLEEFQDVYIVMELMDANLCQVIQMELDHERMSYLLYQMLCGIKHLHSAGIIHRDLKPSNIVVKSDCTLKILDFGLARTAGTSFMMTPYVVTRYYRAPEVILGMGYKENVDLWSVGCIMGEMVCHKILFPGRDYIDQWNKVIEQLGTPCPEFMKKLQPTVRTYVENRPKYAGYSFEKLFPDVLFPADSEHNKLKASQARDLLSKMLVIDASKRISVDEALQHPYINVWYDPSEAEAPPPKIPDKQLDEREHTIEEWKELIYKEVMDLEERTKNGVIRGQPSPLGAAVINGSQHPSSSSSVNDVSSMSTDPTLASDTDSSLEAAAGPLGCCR
T18 sequence (Q13464 whole entry): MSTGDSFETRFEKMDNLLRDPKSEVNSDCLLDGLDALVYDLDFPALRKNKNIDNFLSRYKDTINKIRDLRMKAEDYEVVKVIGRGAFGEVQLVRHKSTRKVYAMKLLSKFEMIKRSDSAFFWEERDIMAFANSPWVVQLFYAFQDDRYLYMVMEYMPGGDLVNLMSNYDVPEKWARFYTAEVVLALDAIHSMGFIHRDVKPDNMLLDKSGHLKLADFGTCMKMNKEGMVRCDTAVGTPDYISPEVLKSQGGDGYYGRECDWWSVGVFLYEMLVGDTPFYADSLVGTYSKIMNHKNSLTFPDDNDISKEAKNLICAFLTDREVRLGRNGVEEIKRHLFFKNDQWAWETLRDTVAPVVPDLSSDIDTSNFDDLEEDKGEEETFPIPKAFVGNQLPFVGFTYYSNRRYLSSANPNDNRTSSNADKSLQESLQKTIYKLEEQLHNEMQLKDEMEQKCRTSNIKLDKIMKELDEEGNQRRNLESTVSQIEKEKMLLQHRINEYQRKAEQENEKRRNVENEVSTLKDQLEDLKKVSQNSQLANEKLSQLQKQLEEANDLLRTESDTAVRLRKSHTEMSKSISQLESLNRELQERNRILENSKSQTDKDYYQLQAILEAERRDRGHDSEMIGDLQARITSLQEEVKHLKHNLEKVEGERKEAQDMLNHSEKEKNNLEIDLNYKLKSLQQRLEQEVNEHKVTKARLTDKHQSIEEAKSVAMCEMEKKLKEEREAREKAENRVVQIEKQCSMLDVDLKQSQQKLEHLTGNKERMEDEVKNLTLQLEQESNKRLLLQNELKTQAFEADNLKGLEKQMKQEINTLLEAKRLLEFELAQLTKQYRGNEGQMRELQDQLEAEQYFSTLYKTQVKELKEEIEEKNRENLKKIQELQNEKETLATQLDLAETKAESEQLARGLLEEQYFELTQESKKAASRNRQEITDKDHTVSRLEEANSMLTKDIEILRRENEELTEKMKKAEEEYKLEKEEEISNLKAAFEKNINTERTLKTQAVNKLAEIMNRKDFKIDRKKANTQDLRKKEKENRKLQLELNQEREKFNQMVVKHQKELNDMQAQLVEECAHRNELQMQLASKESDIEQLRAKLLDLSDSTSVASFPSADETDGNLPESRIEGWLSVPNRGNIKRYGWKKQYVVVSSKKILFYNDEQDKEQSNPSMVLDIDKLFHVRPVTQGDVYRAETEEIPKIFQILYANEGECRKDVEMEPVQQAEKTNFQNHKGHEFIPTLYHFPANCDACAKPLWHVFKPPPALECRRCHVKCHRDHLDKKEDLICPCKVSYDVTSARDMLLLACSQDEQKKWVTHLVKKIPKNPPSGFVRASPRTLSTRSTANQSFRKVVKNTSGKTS

Structure (SMILES) | EC50 (PDAC1 3D spheres) | remaining binding at 1 µM (CSNK1D) | remaining binding at 1 µM (HIPK4) | remaining binding at 1 µM (MERTK) | remaining binding at 1 µM (TXK) | remaining binding at 1 µM (MKK7) | remaining binding at 1 µM (WNK2) | remaining binding at 1 µM (PHKG2) | remaining binding at 1 µM (LRRK2(G2019S)) | remaining binding at 1 µM (PKN2) | remaining binding at 1 µM (STK16) | remaining binding at 1 µM (ABL1(E255K)-P) | remaining binding at 1 µM (FLT3(D835V)) | remaining binding at 1 µM (ERK8) | remaining binding at 1 µM (JNK1) | remaining binding at 1 µM (TNIK) | remaining binding at 1 µM (PAK3) | remaining binding at 1 µM (CAMK2B) | remaining binding at 1 µM (ROCK1) | remaining binding at 1 µM (ACVRL1)
COc1nc2ccc(NCC3CCN(C)CC3)nn2c1C(=O)Nc1cccc(OC(F)(F)F)c1 [Cpd 1] | ~2.91 µM | – | – | – | – | – | – | – | – | – | – | – | – | – | – | – | – | – | – | –
CN1CCC(CNc2ccc3ncc(C(=O)Nc4cccc(OC(F)(F)F)c4)n3n2)CC1 [Cpd 2] | – | 100% | 88% | 88% | 100% | 100% | 77% | 89% | 93% | 79% | 96% | 85% | 0.45% | 96% | 92% | 81% | 98% | 92% | 50% | 100%
